Reference: ChEMBL document CHEMBL1153015, “A new type of five-membered heterocyclic inhibitors of basic metallocarboxypeptidases” (Eur J Med Chem, 2009)

Key:
Carboxypeptidase B [1] = target: T1, Carboxypeptidase B (Helicoverpa zea, UniProt Q3T905); experiment: Inhibition of corn earworm recombinant carboxypeptidase B expressed in Pichia pastoris system
T1 sequence (Q3T905 whole entry): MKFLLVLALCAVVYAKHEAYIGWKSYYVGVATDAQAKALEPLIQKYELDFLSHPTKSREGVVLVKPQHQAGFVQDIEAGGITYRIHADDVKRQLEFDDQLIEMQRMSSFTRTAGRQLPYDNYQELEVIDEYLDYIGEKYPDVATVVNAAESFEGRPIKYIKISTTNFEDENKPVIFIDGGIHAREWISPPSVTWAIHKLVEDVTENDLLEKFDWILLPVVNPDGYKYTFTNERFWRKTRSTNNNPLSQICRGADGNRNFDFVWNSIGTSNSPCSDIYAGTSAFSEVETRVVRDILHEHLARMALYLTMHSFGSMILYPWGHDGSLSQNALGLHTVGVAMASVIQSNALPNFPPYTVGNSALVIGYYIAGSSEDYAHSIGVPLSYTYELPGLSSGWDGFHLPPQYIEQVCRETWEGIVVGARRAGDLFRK

Carboxypeptidase A1 = target: T2, Carboxypeptidase A1 (Bos taurus, UniProt P00730); experiment: Inhibition of bovine carboxypeptidase A1
T2 sequence (P00730 whole entry): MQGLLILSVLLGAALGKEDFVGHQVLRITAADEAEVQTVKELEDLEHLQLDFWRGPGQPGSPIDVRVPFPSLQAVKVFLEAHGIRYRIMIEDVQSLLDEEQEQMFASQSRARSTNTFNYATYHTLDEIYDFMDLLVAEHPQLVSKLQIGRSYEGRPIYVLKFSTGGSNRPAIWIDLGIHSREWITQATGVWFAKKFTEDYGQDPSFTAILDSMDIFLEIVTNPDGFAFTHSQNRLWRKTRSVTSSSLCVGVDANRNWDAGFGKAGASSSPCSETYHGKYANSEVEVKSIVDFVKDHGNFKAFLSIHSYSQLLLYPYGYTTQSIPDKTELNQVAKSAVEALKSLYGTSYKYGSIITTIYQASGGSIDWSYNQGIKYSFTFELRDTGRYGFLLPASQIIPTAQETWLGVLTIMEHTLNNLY

Carboxypeptidase B [2] = target: T3, Carboxypeptidase B (Homo sapiens, UniProt P15086); experiment: Inhibition of human recombinant carboxypeptidase B expressed in Pichia pastoris system
T3 sequence (P15086 whole entry): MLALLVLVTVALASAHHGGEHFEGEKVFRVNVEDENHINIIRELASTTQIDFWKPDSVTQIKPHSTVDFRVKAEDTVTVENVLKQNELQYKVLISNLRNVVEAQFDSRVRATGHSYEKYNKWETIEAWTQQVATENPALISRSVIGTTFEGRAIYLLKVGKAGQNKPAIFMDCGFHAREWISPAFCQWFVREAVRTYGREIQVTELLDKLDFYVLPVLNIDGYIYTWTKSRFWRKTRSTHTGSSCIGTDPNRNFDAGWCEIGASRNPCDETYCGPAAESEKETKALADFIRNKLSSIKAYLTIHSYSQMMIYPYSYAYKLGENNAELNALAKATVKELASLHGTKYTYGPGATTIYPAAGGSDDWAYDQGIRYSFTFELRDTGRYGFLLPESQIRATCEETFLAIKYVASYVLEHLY

[3] = Selectivity ratio, Ki for bovine carboxypeptidase A1 to Ki for human recombinant carboxypeptidase B

SMILES	Ki (Carboxypeptidase B [1]; read-out: Ki)	Ki (Carboxypeptidase A1)	Ki (Carboxypeptidase B [2])	Ratio Ki [3]	Ki (Carboxypeptidase B [1])
COc1ccc(C(=O)Cn2nnc(-c3ccccc3NC(=O)C3CC3)n2)cc1	31 µM	41.3 µM	292 µM	–	–
O=C(C1CC1)N(Cc1ccccc1)c1nc(-c2ccccc2)cs1	1.2 µM	800 µM	4.5 µM	160	–
Cc1ccccc1CCNS(=O)(=O)c1ccc(-n2cnnn2)c(C)c1	38 µM	138 µM	25.9 µM	–	–
Cc1ccccc1-c1nnc(SCC(=O)c2ccccc2F)o1	40 µM	39.3 µM	14.7 µM	–	–
COc1cccc(CN(Cc2cccnc2)S(=O)(=O)c2ccc(-n3cnnn3)c(C)c2)c1	28.4 µM	148 µM	23.9 µM	–	–
O=C(CSc1nnc(-c2ccccc2O)o1)c1ccc(Cl)cc1	1 µM	2.1 µM	7.5 µM	20	–
O=C(O)c1cccc(-n2nnnc2SCC(=O)c2ccccc2F)c1	53.8 µM	550 µM	33.6 µM	–	–
O=S(=O)(NCc1ccccc1)c1ccc(S(=O)(=O)N(Cc2cccs2)CC2CCCO2)cc1 (configuration not stated)	–	19.4 µM	23 µM	–	Not Active
O=S(=O)(NCc1cccs1)c1ccc(-c2nnc(SCc3ccccc3Cl)o2)cc1	1.4 µM	67.3 µM	40 µM	–	–
O=C(O)c1ccccc1C(=O)N1CCC(C(=O)c2ccccc2)CC1	19.6 µM	320 µM	20.7 µM	–	–
O=C(O)CC(Cc1ccccc1)C(=O)O (racemic)	11.9 µM	0.5 µM	10 µM	–	–
O=C(CSc1nnc(-c2ccco2)n1Cc1ccccc1)c1ccc(F)cc1	–	236 µM	74.5 µM	–	Not Active
Cc1ccc(C)c2c1[nH]c1nc(SCC(=O)c3ccc(F)cc3)nnc12	9 µM	86.3 µM	15 µM	–	–
COc1cccc(CSc2nnc(Cc3csc(Nc4cccc(Cl)c4)n3)o2)c1	3.6 µM	22.5 µM	1.2 µM	–	–
Cc1ccc(S(=O)(=O)N2CCN(C(=O)CNCc3ccncc3)CC2)cc1	18 µM	250 µM	364 µM	–	–
Cc1cc(S(=O)(=O)N(Cc2ccco2)Cc2ccccc2Cl)ccc1-n1cnnn1	12.6 µM	159 µM	16.6 µM	–	–
O=C(CSc1nnc(-c2ccc(O)cc2)n1Cc1ccco1)c1cccs1	–	74.5 µM	9.1 µM	–	Not Active
N=C(N)NCCSC(CC(=O)O)C(=O)O (racemic)	–	–	1.1 µM	–	–

Next, values leading:

Ki (Carboxypeptidase B [1]; read-out: Ki)	Ki (Carboxypeptidase A1)	Ki (Carboxypeptidase B [2])	Ratio Ki [3]	Ki (Carboxypeptidase B [1])	SMILES
19.7 µM	128 µM	25.1 µM	–	–	CCCN(C(=O)Cc1ccccc1OC)c1nnc(-c2ccc(OC)cc2)s1
41.6 µM	159 µM	4.9 µM	30	–	COC(=O)CSc1nnc(-c2ccccc2O)n1Cc1ccccc1
11.9 µM	22 µM	10.8 µM	–	–	CCOC(=O)C(Sc1nnc(COc2ccc(CC)cc2)n1CC)C(C)C (configuration not stated)
57 µM	217 µM	196 µM	–	–	Cc1cccc(CCc2nnc(SCC(=O)O)n2Cc2ccccc2)c1
12 µM	36.7 µM	11.7 µM	–	–	Cc1ccc(C(=O)CSc2nnc(COc3ccc(Cl)cc3)o2)cc1
30.2 µM	381 µM	20.8 µM	–	–	COc1ccccc1Cn1c(SCC(=O)N2CCC(C)CC2)nnc1-c1ccncc1
27.2 µM	155 µM	11.6 µM	–	–	NC(=O)CSc1nnc(-c2cccs2)n1Cc1ccccc1
33.4 µM	32 µM	67.2 µM	–	–	O=C(CSc1nnc(-c2ccccc2F)o1)OCc1ccccc1
36.1 µM	160 µM	7.4 µM	–	–	COc1ccccc1-c1nnc(SCC(=O)OC(C)C)n1Cc1ccccc1
